In US7868013B2, “Cycloalkyl substituted pyrimidinediamine compounds and their uses” (Rigel Pharmaceuticals, Inc., priority 2004, dated 2011):
Counter-ions that a name gives are not always drawn. Like-named read-outs stand apart in the source and are kept apart here.

Legend:
A549 (lung carcinoma) = test: In vitro antiproliferation assay, A549 cells (TABLE 1 6 point assay; TABLE 2); type: cell-based; conditions: Homo sapiens
Experimental: (§1) Certain compounds were tested against other cell types for their ability to inhibit proliferation in standard antiproliferation assays.

[1] = test system: H1299 (non-small cell lung carcinoma); test: In vitro antiproliferation assay, H1299 cells (TABLE 1 6 point assay; TABLE 2); type: cell-based
Experimental: as §1

[2] = A549, 6 point assay, A549 cells, read-out: IC50, A549 cells
[3] = Homo sapiens, NCI-H1299, 6 point assay, H1299 cells, read-out: IC50, H1299 cells
[4] = A549, A549 cells, 6 point assay, read-out: A549, 6pt (IC50, inhibition of proliferation)
[5] = Homo sapiens, NCI-H1299, H1299 cells, 6 point assay, read-out: H1299, 6pt (IC50, inhibition of proliferation)
[6] = H1299 cells, 6 point assay, read-out: H1299, 6pt (IC50, inhibition of proliferation)

| Structure (SMILES) | IC50 (A549 (lung carcinoma); [4]) [nM] | IC50 [1, 5] [nM] | further results |
| --- | --- | --- | --- |
| Cc1cc(Nc2ncc(F)c(NC3C4C=CC(C4)C3C(N)=O)n2)ccc1N1CC(C)OC(C)C1 (racemic) [Compound 284, Racemic-(2-exo,3-exo)-N4-(3-aminocarbonylbicyclo[2.2.1]hept-5-en-2-yl)-N2-[4-(2,6-dimethylmorpholino)-3-methylphenyl]-5-fluoro-2,4-pyrimidinediamine] |  |  | IC50 (A549 (lung carcinoma); [2]): ≤ 100 nM; IC50 [1, 3]: ≤ 100 nM |
| Cc1cc(Nc2ncc(F)c(NC3C4C=CC(C4)C3C(N)=O)n2)ccc1N1CC2CC1CC2C (racemic) [Compound 285, Racemic-(2-exo,3-exo)-N4-(3-aminocarbonylbicyclo[2.2.1]hept-5-en-2-yl)-5-fluoro-N2-[3-methyl-4-(5-methyl-(1S,4S)-2,5-diazabicyclo[2.2.1]heptan-2-yl)]phenyl-2,4-pyrimidinediamine] |  |  | IC50 (A549 (lung carcinoma); [2]): ≤ 100 nM; IC50 [1, 3]: ≤ 100 nM |
| Cc1cc(Nc2ncc(F)c(N[C@H]3C=CC[C@H]3C(N)=O)n2)ccc1N1CCN(C)CC1 (racemic) [Compound 286, Racemic-cis-N4-(2-aminocarbonylcyclopent-4-en-1-yl)-5-fluoro-N2-[3-methyl-4-(4-methylpiperazin-1-yl)phenyl]-2,4-pyrimidinediamine] |  |  | IC50 (A549 (lung carcinoma); [2]): 100 to 1000 nM; IC50 [1, 3]: 100 to 1000 nM |
| Cc1cc(Nc2ncc(F)c(N[C@H]3CCC[C@H]3C(N)=O)n2)ccc1N1CCCC1 (racemic) [Compound 287, Racemic-cis-N4-(2-aminocarbonylcyclopent-1-yl)-5-fluoro-N2-[3-methyl-4-(pyrrolidino)phenyl]-2,4-pyrimidinediamine] |  |  | IC50 (A549 (lung carcinoma); [2]): 1000 to 10000 nM; IC50 [1, 3]: 1000 to 10000 nM |
| Cc1cc(Nc2ncc(F)c(NC3C4C=CC(C4)C3C(N)=O)n2)ccc1N1CCCC1 (racemic) [Compound 288, Racemic-(2-exo,3-exo)-N4-(3-aminocarbonylbicyclo[2.2.1]hept-5-en-2-yl)-5-fluoro-N2-[3-methyl-4-(pyrrolidino)phenyl]-2,4-pyrimidinediamine] |  |  | IC50 (A549 (lung carcinoma); [2]): 100 to 1000 nM; IC50 [1, 3]: 100 to 1000 nM |
| Cc1ccc(Nc2ncc(F)c(N[C@H]3CCC[C@H]3C(N)=O)n2)cc1OCC(=O)N1CCN(C)CC1 (racemic) [compound 102, Racemic-cis-N4-(2-aminocarbonylcyclopent-1-yl)-5-fluoro-N2-[4-methyl-3-(4-methylpiperazin-1-yl)carbonylmethyleneoxyphenyl]-2,4-pyrimidinediamine] | 1000 to 10000 | 1000 to 10000 |  |
| Cc1ccc(Nc2ncc(F)c(NC3C4C=CC(C4)C3C(N)=O)n2)cc1OCC(=O)N1CCOCC1 (racemic) [compound 103, Racemic-(2-exo, 3-exo)-N4-(3-aminocarbonylbicyclo[2.2.1]hept-5-en-2-yl)-5-fluoro-N2-[4-methyl-3-(N-morpholinyl)carbonylmethyleneoxyphenyl]-2,4-pyrimidinediamine] | 100 to 1000 | ≤ 100 |  |
| Cc1ccc(Nc2ncc(F)c(NC3C4C=CC(C4)C3C(N)=O)n2)cc1OCCN1CCOCC1 (racemic) [compound 104, Racemic-(2-exo, 3-exo)-N4-(3-aminocarbonylbicyclo[2.2.1]hept-5-en-2-yl)-5-fluoro-N2-[4-methyl-3-(N-morpholinyl)-2-ethyleneoxyphenyl]-2,4-pyrimidinediamine] | ≤ 100 | ≤ 100 |  |
| Cc1cc(Nc2ncc(F)c(NC3C4C=CC(C4)C3C(N)=O)n2)ccc1N1CCN(CCO)CC1 (racemic) [compound 111] | ≤ 100 | ≤ 100 |  |
| Cc1cc(Nc2ncc(F)c(N[C@H]3[C@@H](C(N)=O)[C@@H]4C=C[C@H]3C4)n2)ccc1N1CCN(C)CC1 [compound 139, (1R,2R,3S,4S)-N4-(3-Aminocarbonylbicyclo[2.2.1]hept-5-en-2-yl)-5-fluoro-N2-[3-methyl-4-(4-methylpiperazin-1-yl)phenyl]-2,4-pyrimidinediamine Trifluoroacetic Acid Salt] |  |  | IC50 [1, 6]: ≤ 100 nM |
| Cc1cc(Nc2ncc(F)c(N[C@H]3[C@@H](C(N)=O)[C@@H]4C=C[C@H]3C4)n2)ccc1N1CCN(C)CC1 [compound 140, (1R,2R,3S,4S)-N4-(3-Aminocarbonylbicyclo[2.2.1]hept-5-en-2-yl)-5-fluoro-N2-[3-methyl-4-(4-methylpiperazin-1-yl)phenyl]-2,4-pyrimidinediamine Methanesulfonic Acid Salt] |  |  | IC50 [1, 6]: ≤ 100 nM |
| Cc1cc(Nc2ncc(F)c(N[C@H]3[C@@H](C(N)=O)[C@@H]4C=C[C@H]3C4)n2)ccc1N1CCN(C)CC1 [compound 141, (1R,2R,3S,4S)-N4-(3-Aminocarbonylbicyclo[2.2.1]hept-5-en-2-yl)-5-fluoro-N2-[3-methyl-4-(4-methylpiperazin-1-yl)phenyl]-2,4-pyrimidinediamine Nitric Acid Salt] |  | ≤ 100 |  |
| Cc1cc(Nc2ncc(F)c(N[C@H]3[C@@H](C(N)=O)[C@@H]4C=C[C@H]3C4)n2)ccc1N1CCN(C)CC1 [compound 142, (1R,2R,3S,4S)-N4-(3-Aminocarbonylbicyclo[2.2.1]hept-5-en-2-yl)-5-fluoro-N2-[3-methyl-4-(4-methylpiperazin-1-yl)phenyl]-2,4-pyrimidinediamine Sulfuric Acid Salt] |  |  | IC50 [1, 6]: ≤ 100 nM |
| Cc1cc(Nc2ncc(F)c(N[C@H]3[C@@H](C(N)=O)[C@@H]4C=C[C@H]3C4)n2)ccc1N1CCN(C)CC1 [compound 143, (1R,2R,3S,4S)-N4-(3-Aminocarbonylbicyclo[2.2.1]hept-5-en-2-yl)-5-fluoro-N2-[3-methyl-4-(4-methylpiperazin-1-yl)phenyl]-2,4-pyrimidinediamine (S)- Mandelic Acid Salt] |  |  | IC50 [1, 6]: ≤ 100 nM |
| Cc1cc(Nc2ncc(F)c(N[C@H]3[C@@H](C(N)=O)[C@@H]4C=C[C@H]3C4)n2)ccc1N1CCN(C)CC1 [compound 144, (1R,2R,3S,4S)-N4-(3-Aminocarbonylbicyclo[2.2.1]hept-5-en-2-yl)-5-fluoro-N2-[3-methyl-4-(4-methylpiperazin-1-yl)phenyl]-2,4-pyrimidinediamine p- Toluenesulfonic Acid Salt] |  |  | IC50 [1, 6]: ≤ 100 nM |

Continued, in another order:

| IC50 (A549 (lung carcinoma); [4]) [nM] | IC50 [1, 5] [nM] | Structure (SMILES) | further results |
| --- | --- | --- | --- |
| 1000 to 10000 | 1000 to 10000 | CNC(=O)COc1cc(Nc2ncc(F)c(N[C@H]3CCC[C@H]3C(N)=O)n2)ccc1C (racemic) [compound 106, Racemic-cis-N4-(2-aminocarbonylcyclopent-1-yl)-5-fluoro-N2-[4-methyl-3-(N-methylamino)carbonylmethyleneoxyphenyl]-2,4-pyrimidinediamine] |  |
| 1000 to 10000 | 1000 to 10000 | Cc1cc(Nc2ncc(F)c(N[C@H]3CCC[C@H]3C(N)=O)n2)ccc1N1CCNCC1 (racemic) [compound 107, Racemic-cis-N4-(2-amino-carbonylcyclopent-1-yl)-5-fluoro-N2-[3-methyl-4-(piperazin-1-yl)phenyl]-2,4-pyrimidinediamine] |  |
| > 10000 | 1000 to 10000 | Cc1cc(Nc2ncc(F)c(NC3C4C=CC(C4)C3C(N)=O)n2)ccc1N1CCNCC1 (racemic) [compound 108] |  |
| 1000 to 10000 | 1000 to 10000 | CN1CCN(C(=O)c2cc3cc(Nc4ncc(F)c(N[C@H]5CCC[C@H]5C(N)=O)n4)ccc3o2)CC1 (racemic) [compound 130, Racemic-cis-N4-(2-aminocarbonylcyclopent-1-yl)-5-fluoro-N2-[2-(4-methylpiperazin-1-ylcarbonyl)benzofuran-5-yl]-2,4-pyrimidinediamine] |  |
